# In ChEMBL document CHEMBL2057206, “Symmetrical approach of spiro-pyrazolidinediones as acetyl-CoA carboxylase inhibitors” (Bioorg Med Chem Lett, 2012):
# Activity calls are given as the source filed them. The rule behind the calls is not given here.
# Tests used:
# [1] = Lipophilicity, log D of the compound by HPLC analysis at pH 7; format: physicochemical; conditions: buffer
# [2] = target: Acetyl-CoA carboxylase 1 (Homo sapiens, UniProt Q13085); assay: Inhibition of human ACC1 using acetyl-coA as substrate incubated for 60 mins prior to substrate addition measured after 20 mins by malachite green assay
# [3] = Clearance in human liver microsomes assessed per mg of protein; format: ADME, Microsome; conditions: read-out: CLH
# [4] = target: Acetyl-CoA carboxylase 2 (Homo sapiens, UniProt O00763); assay: Inhibition of human ACC2 using acetyl-coA as substrate incubated for 60 mins prior to substrate addition measured after 20 mins by malachite green assay
# [5] = Inhibition of rat ACC2
# [6] = tested on: Rattus norvegicus; assay: Antidyslipidemic activity in po dosed Wistar fatty rat assessed as reduction in respiratory quoteint after 3 hrs; format: functional, organism-based
# [7] = tested on: Rattus norvegicus; assay: Antidyslipidemic activity in Wistar fatty rat assessed as reduction in respiratory quoteint at 1 mg/kg, po after 3 hrs; format: functional, organism-based; set-up: dose 1 mg/kg
# [8] = target: Acetyl-CoA carboxylase 1 (Rattus norvegicus, UniProt P11497); assay: Inhibition of rat ACC1
# Acetyl-CoA carboxylase 2, sequence (O00763 whole entry): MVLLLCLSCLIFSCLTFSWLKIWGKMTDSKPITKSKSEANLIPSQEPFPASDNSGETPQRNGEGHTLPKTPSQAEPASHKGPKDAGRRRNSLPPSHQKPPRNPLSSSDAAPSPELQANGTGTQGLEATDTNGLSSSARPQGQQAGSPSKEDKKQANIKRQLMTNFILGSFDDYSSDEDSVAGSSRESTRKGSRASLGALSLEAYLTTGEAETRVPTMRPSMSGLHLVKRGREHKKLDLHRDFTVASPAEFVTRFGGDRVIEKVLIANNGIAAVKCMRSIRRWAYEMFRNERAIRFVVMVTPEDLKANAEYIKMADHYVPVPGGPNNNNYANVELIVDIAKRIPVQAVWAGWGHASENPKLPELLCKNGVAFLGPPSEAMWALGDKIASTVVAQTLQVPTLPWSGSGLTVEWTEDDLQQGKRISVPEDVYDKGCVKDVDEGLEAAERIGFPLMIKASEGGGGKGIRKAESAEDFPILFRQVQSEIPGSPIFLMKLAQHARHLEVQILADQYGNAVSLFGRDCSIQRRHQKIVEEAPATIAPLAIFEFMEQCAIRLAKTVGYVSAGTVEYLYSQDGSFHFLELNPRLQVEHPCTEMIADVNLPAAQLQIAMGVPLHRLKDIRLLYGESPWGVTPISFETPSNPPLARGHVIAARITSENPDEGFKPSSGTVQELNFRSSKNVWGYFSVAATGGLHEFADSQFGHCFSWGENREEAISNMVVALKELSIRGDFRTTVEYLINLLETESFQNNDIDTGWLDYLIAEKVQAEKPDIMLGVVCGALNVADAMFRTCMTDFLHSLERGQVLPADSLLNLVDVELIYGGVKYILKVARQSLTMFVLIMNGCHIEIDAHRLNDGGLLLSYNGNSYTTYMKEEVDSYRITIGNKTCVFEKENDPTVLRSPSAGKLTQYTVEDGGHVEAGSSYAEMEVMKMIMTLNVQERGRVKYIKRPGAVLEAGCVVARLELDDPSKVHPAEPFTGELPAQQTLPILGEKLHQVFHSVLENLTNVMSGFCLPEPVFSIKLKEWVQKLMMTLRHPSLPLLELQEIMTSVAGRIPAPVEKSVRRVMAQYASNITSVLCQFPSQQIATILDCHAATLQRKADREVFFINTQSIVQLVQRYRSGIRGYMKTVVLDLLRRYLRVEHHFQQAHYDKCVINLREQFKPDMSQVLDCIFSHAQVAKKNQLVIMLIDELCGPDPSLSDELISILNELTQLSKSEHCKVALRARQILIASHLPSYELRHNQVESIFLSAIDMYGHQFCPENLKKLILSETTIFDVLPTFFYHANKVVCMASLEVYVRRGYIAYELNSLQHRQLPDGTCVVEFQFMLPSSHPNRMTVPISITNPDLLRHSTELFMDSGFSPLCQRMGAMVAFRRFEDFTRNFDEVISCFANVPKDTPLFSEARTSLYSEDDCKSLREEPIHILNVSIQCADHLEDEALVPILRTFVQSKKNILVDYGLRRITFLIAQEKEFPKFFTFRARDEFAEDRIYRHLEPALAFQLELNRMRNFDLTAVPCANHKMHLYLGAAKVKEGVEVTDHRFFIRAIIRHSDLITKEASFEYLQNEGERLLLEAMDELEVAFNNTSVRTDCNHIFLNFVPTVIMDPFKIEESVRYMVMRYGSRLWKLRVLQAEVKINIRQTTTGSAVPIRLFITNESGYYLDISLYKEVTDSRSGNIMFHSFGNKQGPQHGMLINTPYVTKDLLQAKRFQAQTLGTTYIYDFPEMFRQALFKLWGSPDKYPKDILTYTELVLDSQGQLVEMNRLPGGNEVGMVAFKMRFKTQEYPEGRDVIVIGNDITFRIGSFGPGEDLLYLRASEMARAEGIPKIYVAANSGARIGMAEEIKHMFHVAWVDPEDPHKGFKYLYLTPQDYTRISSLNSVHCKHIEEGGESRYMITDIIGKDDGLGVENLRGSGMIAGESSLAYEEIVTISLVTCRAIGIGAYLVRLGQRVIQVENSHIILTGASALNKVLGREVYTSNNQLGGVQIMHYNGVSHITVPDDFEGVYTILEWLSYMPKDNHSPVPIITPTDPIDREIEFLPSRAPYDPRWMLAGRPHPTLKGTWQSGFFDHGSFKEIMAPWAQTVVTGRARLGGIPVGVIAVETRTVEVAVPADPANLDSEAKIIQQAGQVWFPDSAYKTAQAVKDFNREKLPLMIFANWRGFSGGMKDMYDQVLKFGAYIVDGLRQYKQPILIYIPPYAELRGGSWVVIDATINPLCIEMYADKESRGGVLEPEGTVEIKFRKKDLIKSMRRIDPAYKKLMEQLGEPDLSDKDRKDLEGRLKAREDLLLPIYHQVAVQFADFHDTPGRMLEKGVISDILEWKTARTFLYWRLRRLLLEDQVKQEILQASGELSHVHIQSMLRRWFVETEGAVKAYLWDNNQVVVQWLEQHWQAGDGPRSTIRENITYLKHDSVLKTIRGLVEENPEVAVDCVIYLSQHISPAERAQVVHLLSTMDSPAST
Compound,logD [1],IC50 [2] [nM],microsomal CLint [3] [µL/min/mg],IC50 [4] [nM],IC50 [5] [nM],IC50 [8] [nM],Activity [6],Activity [7]
CCN1C(=O)C2(CCCN(C3CCN(C(=O)c4c(NC(=O)NC)sc5ccccc45)CC3)C2)C(=O)N1CC,2.33,41,120,8.1,–,–,–,–
COc1cccc2c(C(=O)N3CCC(N4CCCC5(C4)C(=O)N4CCCCN4C5=O)CC3)c(NC(N)=O)sc12,1.76,22,15,5.9,–,–,–,–
CNC(=O)Nc1sc2c(OC)cccc2c1C(=O)N1CCC(N2CCCC3(C2)C(=O)N2CCCCN2C3=O)CC1,2.08,25,6,6.1,–,–,–,–
CCNC(=O)Nc1sc2c(OC)cccc2c1C(=O)N1CCC(N2CCCC3(C2)C(=O)N2CCCCN2C3=O)CC1,2.33,21,35,4.9,13,28,Dose-dependent effect,Active
CCNC(=O)Nc1sc2ccccc2c1C(=O)N1CCC(N2CCCC3(C2)C(=O)N(C)N(C)C3=O)CC1,2.03,120,12,20,–,–,–,–

# Second part, led by results:
logD [1],IC50 [2] [nM],microsomal CLint [3] [µL/min/mg],IC50 [4] [nM],IC50 [5] [nM],IC50 [8] [nM],Compound,Activity [6],Activity [7]
2.14,48,71,8.7,–,–,CNC(=O)Nc1sc2ccccc2c1C(=O)N1CCC(N2CCCC3(C2)C(=O)N2CCCCCN2C3=O)CC1,–,–
2.14,200,12,36,–,–,CNC(=O)Nc1sc2ccccc2c1C(=O)N1CCC(N2CCCC3(C2)C(=O)N2CCCCN2C3=O)CC1,–,–
2.73,22,200,5.1,–,–,CCNC(=O)Nc1sc2ccccc2c1C(=O)N1CCC(N2CCCC3(C2)C(=O)N2CCCCCCN2C3=O)CC1,–,–
2.45,130,18,23,–,–,CCNC(=O)Nc1sc2ccccc2c1C(=O)N1CCC(N2CCCC3(C2)C(=O)N2CCCCN2C3=O)CC1,–,–
2.48,43,100,7.5,–,–,CCNC(=O)Nc1sc2ccccc2c1C(=O)N1CCC(N2CCCC3(C2)C(=O)N2CCCCCN2C3=O)CC1,–,–
1.93,170,25,33,–,–,CCNC(=O)Nc1sc2ccccc2c1C(=O)N1CCC(N2CCCC3(C2)C(=O)N2CCCN2C3=O)CC1,–,–
